Laboratory results taken from PubChem BioAssay AID504561 (Southern Research Specialized Biocontainment Screening …, 2011).
pIC50: −log10 of the molar value.

System: HeLa-CD4-LTR-beta-gal/HL2/3 cell fusion, beta-gal luminescence
Test: inhibitors of CXCR4-tropic HIV-1 Env cell-cell fusion, dose response, HL2/3 with HeLa-CD4 reporter cells, 2% serum, set 2 (AID 504561)

In order of rising pIC50:
1. Cc1c2c(=O)n(-c3nc4ccccc4s3)nc-2cc(O)n1Cc1ccccc1  4.56
2. Cc1c2c(=O)n(-c3nc4ccccc4s3)nc-2cc(O)n1CCc1ccc(O)cc1  5.01
3. Cc1c2c(=O)n(-c3nc4ccccc4s3)nc-2cc(O)n1Cc1ccncc1  5.02
4. COc1ccc(Cn2c(O)cc3nn(-c4nc5ccccc5s4)c(=O)c-3c2C)cc1  5.10
5. Cc1c2c(=O)n(-c3nc4ccccc4s3)nc-2cc(O)n1CCc1cccs1  5.15
6. COc1ccc(CCn2c(O)cc3nn(-c4nc5ccccc5s4)c(=O)c-3c2C)cc1  5.16
7. Cc1c2c(=O)n(-c3nc4ccccc4s3)nc-2cc(O)n1Cc1cccnc1  5.24
8. Cc1c2c(=O)n(-c3nc4ccccc4s3)nc-2cc(O)n1Cc1ccccc1Cl  5.27
9. Cc1c2c(=O)n(-c3nc4ccccc4s3)nc-2cc(O)n1CCC(C)C  5.28
10. Cc1c2c(=O)n(-c3nc4ccccc4s3)nc-2cc(O)n1Cc1cccs1  5.32
11. COc1ccccc1Cn1c(O)cc2nn(-c3nc4ccccc4s3)c(=O)c-2c1C  5.34
12. Cc1c2c(=O)n(-c3nc4ccccc4s3)nc-2cc(O)n1Cc1ccc(F)cc1  5.41
13. Cc1c2c(=O)n(-c3nc4ccccc4s3)nc-2cc(O)n1C1CC1  5.45
